# From patent publication US12692249B2, “WDR5 inhibitors and modulators” (Vanderbilt University, priority 2019, dated 2026)
# Tested on: MV4:11 human cancer cell lines
# Assay: Cellular viability / anti-proliferative assay, CellTiter-Glo, 5 day protocol
# Format: cell-based
# Conditions: Homo sapiens, MV4-11, 120 h, MV4:11 cells; 5 day incubation; CellTiter-Glo; mean of at least two replicates; read-out: GI50 on cellular proliferation of MV4:11 human cancer cell lines
# Experimental: Cellular Viability of Human Tumor Cell Lines
# Anti-proliferative activity using MLL-harboring cell lines. MV-4-11 and K562 cells are grown in IMDM media supplemented with 10% FBS and 1% penicillin/streptomycin, Molm-13 cells are cultured in RPMI-1640 media supplemented with 10% FBS and 1% penicillin/streptomycin. Viability assays are performed by dispensing 200 cells at 7200 cells/mL into each well of an opaque 384-well plate and adding compounds at the indicated concentrations in a final volume, of 32 μL. and a final concentration of DMSO of 0.3% for all samples. A certain range of compound concentrations is made through a series of 2-fold dilutions starting 30 μM at the highest, total 22 dilutions. After a set incubation period, 5 day protocol, the viability of cells in each well is assessed using the CellTiter-Glo assay (Promega), read on a 96 Microplane Luminometer (Cytation 3, BioTek). Serial dilutions of each cell type are performed in all assays to generate standard curves and the final densities of cells are determined within the dynamic range of the instrument. GI50 values are calculated based on XLfit software (IDBS, Guildford, UK) with Sigmoidal Dose-Response Model. Each compound is tested in minimum of two replicates. Data are expressed as mean.
row,SMILES,GI50
1,"COc1ccc2nc(C)cc(N3CCc4c(cc(Cn5ccnc5)cc4-c4cn(C)nc4C(F)(F)F)C3=O)c2c1 [Example 14, 7-((1H-Imidazol-1-yl)methyl)-2-(6-methoxy-2-methylquinolin-4-yl)-5-(1-methyl-3-(trifluoromethyl)-1H-pyrazol-4-yl)-3,4-dihydroisoquinolin-1(2H)-one]",44 nM
2,"COc1cc(C(=O)O)c2nccc(N3CCc4c(cc(Cn5ccnc5)cc4-c4cn(C)nc4C(F)(F)F)C3=O)c2c1 [Example 40, 4-(7-((1H-Imidazol-1-yl)methyl)-5-(1-methyl-3-(trifluoromethyl)-1H-pyrazol-4-yl)-1-oxo-3,4-dihydroisoquinolin-2(1H)-yl)-6-methoxyquinoline-8-carboxylic acid]",291 nM
3,"COc1cc(C(N)=O)c2nccc(N3CCc4c(cc(Cn5ccnc5)cc4-c4cn(C)nc4C(F)(F)F)C3=O)c2c1 [Example 41, 4-(7-((1H-Imidazol-1-yl)methyl)-5-(1-methyl-3-(trifluoromethyl)-1H-pyrazol-4-yl)-1-oxo-3,4-dihydroisoquinolin-2(1H)-yl)-6-methoxyquinoline-8-carboxamide]",24 nM
4,"COc1cc(C(=O)N2CCN(C)CC2)c2nccc(N3CCc4c(cc(Cn5ccnc5)cc4-c4cn(C)nc4C(F)(F)F)C3=O)c2c1 [Example 43, 7-((1H-Imidazol-1-yl)methyl)-2-(6-methoxy-8-(4-methylpiperazine-1-carbonyl)quinolin-4-yl)-5-(1-methyl-3-(trifluoromethyl)-1H-pyrazol-4-yl)-3,4-dihydroisoquinolin-1(2H)-one]",563 nM
5,"COc1cc(C(=O)N(C)C)c2nccc(N3CCc4c(cc(Cn5ccnc5)cc4-c4cn(C)nc4C(F)(F)F)C3=O)c2c1 [Example 45, 4-(7-((1H-Imidazol-1-yl)methyl)-5-(1-methyl-3-(trifluoromethyl)-1H-pyrazol-4-yl)-1-oxo-3,4-dihydroisoquinolin-2(1H)-yl)-6-methoxy-N,N-dimethylquinoline-8-carboxamide]",326 nM
6,"COc1cc(C(=O)N2CCOCC2)c2nccc(N3CCc4c(cc(Cn5ccnc5)cc4-c4cn(C)nc4C(F)(F)F)C3=O)c2c1 [Example 46, 7-((1H-Imidazol-1-yl)methyl)-2-(6-methoxy-8-(morpholine-4-carbonyl)quinolin-4-yl)-5-(1-methyl-3-(trifluoromethyl)-1H-pyrazol-4-yl)-3,4-dihydroisoquinolin-1(2H)-one]",444 nM
7,"COc1cc(C(=O)NC(C)C)c2nccc(N3CCc4c(cc(Cn5ccnc5)cc4-c4cn(C)nc4C(F)(F)F)C3=O)c2c1 [Example 47, 4-(7-((1H-Imidazol-1-yl)methyl)-5-(1-methyl-3-(trifluoromethyl)-1H-pyrazol-4-yl)-1-oxo-3,4-dihydroisoquinolin-2(1H)-yl)-N-isopropyl-6-methoxyquinoline-8-carboxamide]",54 nM
8,"CCCCNC(=O)c1cc(OC)cc2c(N3CCc4c(cc(Cn5ccnc5)cc4-c4cn(C)nc4C(F)(F)F)C3=O)ccnc12 [Example 48, 4-(7-((1H-Imidazol-1-yl)methyl)-5-(1-methyl-3-(trifluoromethyl)-1H-pyrazol-4-yl)-1-oxo-3,4-dihydroisoquinolin-2(1H)-yl)-N-butyl-6-methoxyquinoline-8-carboxamide]",119 nM
9,"CCc1cc(C(=O)O)c2nccc(N3CCc4c(cc(Cn5ccnc5)cc4-c4cn(C)nc4C(F)(F)F)C3=O)c2c1 [Example 92, 4-(7-((1H-imidazol-1-yl)methyl)-5-(1-methyl-3-(trifluoromethyl)-1H-pyrazol-4-yl)-1-oxo-3,4-dihydroisoquinolin-2(1H)-yl)-6-ethylquinoline-8-carboxylic acid]",388 nM
10,"CCc1cc(-c2cccn2C)c2nccc(N3CCc4c(cc(Cn5ccnc5)cc4-c4cn(C)nc4C(F)(F)F)C3=O)c2c1 [Example 97, 7-((1H-Imidazol-1-yl)methyl)-2-(6-ethyl-8-(1-methyl-1H-pyrrol-2-yl)quinolin-4-yl)-5-(1-methyl-3-(trifluoromethyl)-1H-pyrazol-4-yl)-3,4-dihydroisoquinolin-1(2H)-one]",83 nM
11,"CCc1cc(N2CCOCC2)c2nc(C)cc(N3CCc4c(cc(Cn5ccnc5)cc4-c4cn(C)nc4C(F)(F)F)C3=O)c2c1 [Example 145, 7-((1H-Imidazol-1-yl)methyl)-2-(6-ethyl-2-methyl-8-morpholinoquinolin-4-yl)-5-(1-methyl-3-(trifluoromethyl)-1H-pyrazol-4-yl)-3,4-dihydroisoquinolin-1(2H)-one]",36 nM
12,"COc1cc(N2CCOCC2)c2nc(C)cc(N3CCc4c(cc(Cn5ccnc5)cc4-c4cn(C)nc4C(F)(F)F)C3=O)c2c1 [Example 146, 7-((1H-Imidazol-1-yl)methyl)-2-(6-methoxy-2-methyl-8-morpholinoquinolin-4-yl)-5-(1-methyl-3-(trifluoromethyl)-1H-pyrazol-4-yl)-3,4-dihydroisoquinolin-1(2H)-one]",26 nM
13,"CCc1cc(C2=CCN(C)CC2)c2nc(C)cc(N3CCc4c(cc(Cn5ccnc5)cc4-c4cn(C)nc4C(F)(F)F)C3=O)c2c1 [Example 147, 7-((1H-imidazol-1-yl)methyl)-2-(6-ethyl-2-methyl-8-(1-methyl-1,2,3,6-tetrahydropyridin-4-yl)quinolin-4-yl)-5-(1-methyl-3-(trifluoromethyl)-1H-pyrazol-4-yl)-3,4-dihydroisoquinolin-1(2H)-one]",43 nM

# Stronger by GI50, values ahead:
row,GI50,SMILES
1,< 20 nM,"COc1cc(N2CCN(C(C)=O)CC2)c2nccc(N3CCc4c(cc(Cn5ccnc5)cc4-c4cn(C)nc4C(F)(F)F)C3=O)c2c1 [Example 32, 7-((1H-imidazol-1-yl)methyl)-2-(8-(4-acetylpiperazin-1-yl)-6-methoxyquinolin-4-yl)-5-(1-methyl-3-(trifluoromethyl)-1H-pyrazol-4-yl)-3,4-dihydroisoquinolin-1(2H)-one]"
2,< 20 nM,"COc1cc(N2CCN(C)C(=O)C2)c2nccc(N3CCc4c(cc(Cn5ccnc5)cc4-c4cn(C)nc4C(F)(F)F)C3=O)c2c1 [Example 33, 7-((1H-Imidazol-1-yl)methyl)-2-(6-methoxy-8-(4-methyl-3-oxopiperazin-1-yl)quinolin-4-yl)-5-(1-methyl-3-(trifluoromethyl)-1H-pyrazol-4-yl)-3,4-dihydroisoquinolin-1(2H)-one]"
3,< 20 nM,"CCc1cc(Br)c2nccc(N3CCc4c(cc(Cn5ccnc5)cc4-c4cn(C)nc4C(F)(F)F)C3=O)c2c1 [Example 34, 7-((1H-imidazol-1-yl)methyl)-2-(8-bromo-6-ethylquinolin-4-yl)-5-(1-methyl-3-(trifluoromethyl)-1H-pyrazol-4-yl)-3,4-dihydroisoquinolin-1(2H)-one]"
4,< 20 nM,"CCOC(=O)c1cc(CC)cc2c(N3CCc4c(cc(Cn5ccnc5)cc4-c4cn(C)nc4C(F)(F)F)C3=O)ccnc12 [Example 91, Ethyl 4-(7-((1H-imidazol-1-yl)methyl)-5-(1-methyl-3-(trifluoromethyl)-1H-pyrazol-4-yl)-1-oxo-3,4-dihydroisoquinolin-2(1H)-yl)-6-ethylquinoline-8-carboxylate]"
5,< 20 nM,"Cc1cc(N2CCN(C)CC2)c2cncc(N3CCc4c(cc(Cn5ccnc5)cc4-c4cn(C)nc4C(F)(F)F)C3=O)c2c1 [Example 100, 7-((1H-Imidazol-1-yl)methyl)-6′-methyl-5-(1-methyl-3-(trifluoromethyl)-1H-pyrazol-4-yl)-8′-(4-methylpiperazin-1-yl)-3,4-dihydro-1H-[2,4′-biisoquinolin]-1-one]"
6,< 20 nM,"COc1cc(N2CCN(C)CC2)c2nc(C)cc(N3CCc4c(cc(Cn5ccnc5)cc4-c4cn(C)nc4C(F)(F)F)C3=O)c2c1 [Example 102, 7-((1H-Imidazol-1-yl)methyl)-2-(6-methoxy-2-methyl-8-(4-methylpiperazin-1-yl)quinolin-4-yl)-5-(1-methyl-3-(trifluoromethyl)-1H-pyrazol-4-yl)-3,4-dihydroisoquinolin-1(2H)-one]"
7,< 20 nM,"COc1cc(N2CCN(C)C(=O)C2)c2nc(C)cc(N3CCc4c(cc(Cn5ccnc5)cc4-c4cn(C)nc4C(F)(F)F)C3=O)c2c1 [Example 105, 7-((1H-Imidazol-1-yl)methyl)-2-(6-methoxy-2-methyl-8-(4-methyl-3-oxopiperazin-1-yl)quinolin-4-yl)-5-(1-methyl-3-(trifluoromethyl)-1H-pyrazol-4-yl)-3,4-dihydroisoquinolin-1(2H)-one]"
8,< 20 nM,"CCc1cc(N2CCN(C)C(=O)C2)c2nc(C)cc(N3CCc4c(cc(Cn5ccnc5)cc4-c4cn(C)nc4C(F)(F)F)C3=O)c2c1 [Example 111, 7-((1H-Imidazol-1-yl)methyl)-2-(6-ethyl-2-methyl-8-(4-methyl-3-oxopiperazin-1-yl)quinolin-4-yl)-5-(1-methyl-3-(trifluoromethyl)-1H-pyrazol-4-yl)-3,4-dihydroisoquinolin-1(2H)-one]"
9,< 20 nM,"CCc1cc(N2CCN(C(C)C)CC2)c2nc(C)cc(N3CCc4c(cc(Cn5ccnc5)cc4-c4cn(C)nc4C(F)(F)F)C3=O)c2c1 [Example 137, 7-((1H-Imidazol-1-yl)methyl)-2-(6-ethyl-8-(4-isopropylpiperazin-1-yl)-2-methylquinolin-4-yl)-5-(1-methyl-3-(trifluoromethyl)-1H-pyrazol-4-yl)-3,4-dihydroisoquinolin-1(2H)-one]"
